# Measured values from BindingDB's records for doi:10.1016/j.bmcl.2012.07.091 (University of Copenhagen, 2012).
# Target: T1, Lysine-specific demethylase 4C (Homo sapiens, UniProt Q9H3R0)
# T1 sequence (Q9H3R0 whole entry): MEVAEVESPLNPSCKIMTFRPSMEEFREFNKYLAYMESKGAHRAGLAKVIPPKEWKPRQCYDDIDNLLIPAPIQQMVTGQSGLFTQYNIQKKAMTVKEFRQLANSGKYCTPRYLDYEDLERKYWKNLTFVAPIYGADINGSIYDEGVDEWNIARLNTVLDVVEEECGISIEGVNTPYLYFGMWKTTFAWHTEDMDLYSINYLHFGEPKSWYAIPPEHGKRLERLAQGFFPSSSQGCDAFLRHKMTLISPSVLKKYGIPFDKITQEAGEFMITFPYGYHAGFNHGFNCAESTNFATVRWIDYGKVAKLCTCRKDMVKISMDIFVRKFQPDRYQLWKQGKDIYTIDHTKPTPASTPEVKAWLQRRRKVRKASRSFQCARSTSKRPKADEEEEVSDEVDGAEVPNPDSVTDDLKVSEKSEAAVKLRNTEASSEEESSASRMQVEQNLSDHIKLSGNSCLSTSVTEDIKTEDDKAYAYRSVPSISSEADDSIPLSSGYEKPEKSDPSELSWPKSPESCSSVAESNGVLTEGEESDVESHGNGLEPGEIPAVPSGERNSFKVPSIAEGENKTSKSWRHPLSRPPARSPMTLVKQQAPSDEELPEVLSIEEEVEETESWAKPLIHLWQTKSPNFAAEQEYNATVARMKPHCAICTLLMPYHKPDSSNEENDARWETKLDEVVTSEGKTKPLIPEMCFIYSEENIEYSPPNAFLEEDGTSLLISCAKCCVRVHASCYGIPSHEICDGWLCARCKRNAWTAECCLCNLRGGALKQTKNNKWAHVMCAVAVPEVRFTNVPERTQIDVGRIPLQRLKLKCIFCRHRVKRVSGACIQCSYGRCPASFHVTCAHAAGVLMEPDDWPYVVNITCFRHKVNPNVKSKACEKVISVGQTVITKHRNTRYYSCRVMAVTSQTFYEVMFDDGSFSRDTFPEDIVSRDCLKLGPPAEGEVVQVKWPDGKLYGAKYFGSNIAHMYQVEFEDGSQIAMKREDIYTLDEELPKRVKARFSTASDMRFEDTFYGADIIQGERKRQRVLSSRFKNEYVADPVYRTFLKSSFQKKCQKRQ
# Assay: Inhibition of KDM4C catalytic core-mediated demethylation of ARK(Me)3STGGK after 30 mins by FDH-coupled assay
SMILES,IC50 [µM],Ki [µM]
CNC(=O)c1n[nH]n(C)c1=O,> 200,> 200
OCC1C(Cl)N=NN1c1ccccc1 (stereo unspecified),> 200,> 200
CN1CN(Cc2ccccc2)CC1=S,> 200,> 200
